Reference: patent US20240366612A1, “COMPOUNDS AND METHODS FOR MODULATING NUCLEIC ACID SPLICING” (REMIX THERAPEUTICS INC., priority 2021, published 2024)

Legend:
[1] = test system: Target C CJ mRNA; assay: Gene panel canonical junction qPCR assay, Target C; type: cell-based; conditions: Homo sapiens, larger gene panel, read-out: Target C IC50 (decrease in CJ mRNA levels)
Outline: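 A673 or K562 cells treated 24 h with 11-point 3-fold dilutions (top 10 µM, ≤0.25% DMSO) at 37 °C. Canonical exon-junction mRNA measured by probe-based RT-qPCR, normalized to GAPDH, GUSB or PPIA and DMSO (2^−ΔΔCt), converted to percent response over a fixed ΔCt window; IC50 from 4-parameter fit.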

[2] = test system: HiBiT-tagged MYB protein in K562 cells; assay: HiBiT protein abundance assay, MYB; type: cell-based, human; conditions: HiBiT-modified K562 cells, 24 hours, luminescence
Outline: (§1)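 K562 lines with the endogenous target HiBiT-tagged, seeded in IMDM+1% FBS, got a 10-point 3-fold dilution series (top final 10 μM, DMSO ≤0.25%) for 24 hours at 37° C. Lytic LgBiT luminescence was normalized against unmodified-K562 and DMSO-only controls, and IC50 was interpolated at 50% from a four-parameter logistic fit.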

[3] = test system: HiBiT-tagged Target C protein in K562 cells; assay: HiBiT protein abundance assay, Target C; type: cell-based, human; conditions: HiBiT-modified K562 cells, 24 hours, luminescence
Outline: as §1

IC50 [1]	IC50 [2]	IC50 [3]	Compound
0.1 to 1 µM	0.1 to 1 µM	0.1 to 1 µM	Cc1cn2cc(-c3cc4ncn(C5CCNCC5)c(=O)c4s3)cc(F)c2n1 [Compound 235, 6-(8-fluoro-2-methylimidazo[1,2-a]pyridin-6-yl)-3-(piperidin-4-yl)thieno[3,2-d]pyrimidin-4(3H)-one]
1 to 10 µM	0.1 to 1 µM	0.1 to 1 µM	Cc1cn2nc(-c3nc4ncn(C5CCNCC5)c(=O)c4s3)cc(C)c2n1 [Compound 231, 2-(2,8-dimethylimidazo[1,2-b]pyridazin-6-yl)-6-(piperidin-4-yl)thiazolo[4,5-d]pyrimidin-7(6H)-one]
1 to 10 µM	1 to 10 µM	1 to 10 µM	Cc1cn2cc(-c3cn4c(=O)cc(N5CCNC6(CC6)C5)nc4s3)cc(F)c2n1 [Compound 208, 2-(8-fluoro-2-methylimidazo[1,2-a]pyridin-6-yl)-7-(4,7-diazaspiro[2.5]octan-7-yl)-5H-thiazolo[3,2-a]pyrimidin-5-one]
> 10 µM	1 to 10 µM	> 10 µM	Cc1nc(-c2nc3ncn(C4CCNCC4)c(=O)c3s2)cc2cn(C)nc12 [Compound 251, 2-(2,7-dimethyl-2H-pyrazolo[3,4-c]pyridin-5-yl)-6-(piperidin-4-yl)thiazolo[4,5-d]pyrimidin-7(6H)-one]
1 to 10 µM	1 to 10 µM	1 to 10 µM	COc1cc(-c2cc3ncn(C4CCNCC4)c(=O)c3s2)cnn1 [Compound 260]
1 to 10 µM	1 to 10 µM	1 to 10 µM	Cc1cn2nc(-c3cc4ccn(C5CCN(C)CC5)c(=O)c4s3)cc(C)c2n1 [Compound 809]
1 to 10 µM	1 to 10 µM	1 to 10 µM	Cc1cn2cc(-c3cc(=O)n4nc(N5CCN(C)CC5)sc4n3)cc(F)c2n1 [Compound 159, 7-(8-fluoro-2-methylimidazo[1,2-a]pyridin-6-yl)-2-(4-methylpiperazin-1-yl)-5H-[1,3,4]thiadiazolo[3,2-a]pyrimidin-5-one]
0.1 to 1 µM	0.1 to 1 µM	0.1 to 1 µM	Cc1cn2cc(-c3nc4sc(C5CCNCC5)cc4c(=O)[nH]3)cc(F)c2n1 [Compound 250, 2-(8-fluoro-2-methylimidazo[1,2-a]pyridin-6-yl)-6-(piperidin-4-yl)thieno[2,3-d]pyrimidin-4(3H)-one]
1 to 10 µM	0.1 to 1 µM	1 to 10 µM	Cc1cn2cc(-c3cc4ncn(C5CCNCC5)c(=O)c4s3)cc(C)c2n1 [Compound 261]
> 10 µM	0.1 to 1 µM	0.1 to 1 µM	Cc1cn2cc(-c3nc4cnn(C5CCNCC5)c(=O)c4s3)nc(C)c2n1 [Compound 812, 2-(2,8-dimethylimidazo[1,2-a]pyrazin-6-yl)-6-(piperidin-4-yl)thiazolo[4,5-d]pyridazin-7(6H)-one]
0.1 to 1 µM	0.1 to 1 µM	0.1 to 1 µM	Cc1cn2cc(-c3cc4ccn(C5CCNCC5)c(=O)c4s3)cc(F)c2n1 [Compound 804, 2-(8-fluoro-2-methylimidazo[1,2-a]pyridin-6-yl)-6-(piperidin-4-yl)thieno[2,3-c]pyridin-7(6H)-one]
> 10 µM	> 10 µM	> 10 µM	Cc1cc(-c2cc(=O)n3nc(N4CCN(C)CC4)sc3n2)cc2cn(C)nc12 [Compound 157, 7-(2,7-dimethyl-2H-indazol-5-yl)-2-(4-methylpiperazin-1-yl)-5H-[1,3,4]thiadiazolo[3,2-a]pyrimidin-5-one]
> 10 µM	> 10 µM	> 10 µM	Cc1cn2cc(-n3ccc4cc(C5CCNCC5)sc4c3=O)cc(F)c2n1 [Compound 801, 6-[8-fluoro-2-methylimidazo[1,2-a]pyridin-6-yl]-2-(piperidin-4-yl)thieno[2,3-c]pyridin-7-one]
> 10 µM	> 10 µM	> 10 µM	Cc1cn2cc(-c3nc4sc(C5CCN(C)CC5)cc4c(=O)[nH]3)cc(F)c2n1 [Compound 256, 2-(8-fluoro-2-methylimidazo[1,2-a]pyridin-6-yl)-6-(1-methylpiperidin-4-yl)thieno[2,3-d]pyrimidin-4(3H)-one]
